The source of these data is US6534524B1, “Indazole compounds and pharmaceutical compositions for inhibiting protein kinases, and methods for their use” (Agouron Pharmaceuticals, Inc., priority 1999, dated 2003).

The target in data set [1] is phosphorylated VEGF-R2Δ50 (FLVK-P) (Homo sapiens, UniProt P35968, DEL940-989/E990V). Description: VEGF-R2 coupled spectrophotometric assay, phosphorylated VEGF-R2Δ50 (FLVK-P).
Data set [2] concerns the target unphosphorylated VEGF-R2Δ50 (FLVK) (Homo sapiens, UniProt P35968, DEL940-989/E990V). Description: VEGF-R2 coupled spectrophotometric assay, unphosphorylated VEGF-R2Δ50 (FLVK). Particulars: FLVK Ki, Table 1.
In another data set the target is human FGF-R1 (Homo sapiens, UniProt P11362, C488A/C584S/L457V). In words: FGF-R spectrophotometric assay.
Sequence of human FGF-R1 (P11362 456-766 L457V/C488A/C584S): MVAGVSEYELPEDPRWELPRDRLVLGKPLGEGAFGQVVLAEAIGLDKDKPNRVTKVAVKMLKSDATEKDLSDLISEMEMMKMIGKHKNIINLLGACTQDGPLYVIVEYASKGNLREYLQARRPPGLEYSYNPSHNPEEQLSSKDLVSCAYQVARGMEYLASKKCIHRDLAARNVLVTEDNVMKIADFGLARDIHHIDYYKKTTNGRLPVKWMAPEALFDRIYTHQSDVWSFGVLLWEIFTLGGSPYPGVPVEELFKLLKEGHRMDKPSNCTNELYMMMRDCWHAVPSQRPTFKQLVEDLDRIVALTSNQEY
For the next data set, the target named is CDK4/Cyclin D3 complex (Homo sapiens, UniProt P11802). Description: CDK4/Cyclin D assay ([32P]ATP, Rb fragment).
Sequence of CDK4/Cyclin D3 complex (P11802 whole entry, the tested form may be a part): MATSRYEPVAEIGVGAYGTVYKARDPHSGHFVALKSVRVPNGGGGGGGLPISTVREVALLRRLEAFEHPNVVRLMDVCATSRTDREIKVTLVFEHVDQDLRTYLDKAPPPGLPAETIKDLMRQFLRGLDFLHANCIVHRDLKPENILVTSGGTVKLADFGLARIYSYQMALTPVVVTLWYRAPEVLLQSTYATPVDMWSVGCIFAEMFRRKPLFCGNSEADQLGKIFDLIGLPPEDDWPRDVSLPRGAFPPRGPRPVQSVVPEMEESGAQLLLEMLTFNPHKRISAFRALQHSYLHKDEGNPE
Sequence of CDK4/Cyclin D3 complex (P30281 whole entry partner, the tested form may be a part): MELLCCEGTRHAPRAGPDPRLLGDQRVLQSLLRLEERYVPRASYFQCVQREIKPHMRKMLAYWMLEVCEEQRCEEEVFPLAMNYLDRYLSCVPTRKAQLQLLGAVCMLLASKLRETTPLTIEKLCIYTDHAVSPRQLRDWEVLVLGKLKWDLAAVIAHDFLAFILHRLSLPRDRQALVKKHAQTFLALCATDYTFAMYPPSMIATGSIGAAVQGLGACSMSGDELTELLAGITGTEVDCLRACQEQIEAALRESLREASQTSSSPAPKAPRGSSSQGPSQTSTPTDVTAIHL
The target in a further data set is CDK2/Cyclin A (Homo sapiens, UniProt P24941). In words: CDK2/Cyclin A assay ([32P]ATP, Rb fragment). It is filed as biochemical. The following applies: Table 2.
A short description of data set [3]: Human liver microsome (HLM) assay. The data set is classed as in vitro ADME. Particulars: human liver microsomes, 5 μM test compound. The essentials:
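Compound metabolism in human liver microsomes measured in triplicate. Samples at 0 and 2 h centrifuged at 14000 g for 10 min and analysed by LC-MS.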
On the technique in general: Microsomes from liver hold many membrane-bound enzymes, among them those of drug oxidation.

Data set [4] in a line: Determination of inhibitor concentration in mouse plasma after intraperitoneal and oral dosing. It is filed as in vivo. The following applies: for concentration at 7 h: female. The essentials:
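Mice dosed intraperitoneally or orally; blood taken by ocular bleed at 0.5, 1 and 4 h and by intracardiac puncture at 7 h. Plasma extracted with ethyl acetate after internal standard and NaOH addition, analysed by HPLC or LC-MS against a mouse-plasma standard curve.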

Data set [5] deals with human umbilical vein endothelial cells (HUVEC). Description: HUVEC proliferation assay (VEGF-stimulated, MTT). The data set is classed as cell-based. Particulars: Homo sapiens, HUVEC, + albumin; read-out: HUVEC + albumin IC50.
[6] abbreviates: IP, 25 mg/kg, vehicle PEG400:H2O pH 2.3 60:40.
The mark [7] stands for this setting: PO, 50 mg/kg, vehicle PEG400:H2O pH 2.3 60:40.
The mark [8] stands for this setting: PO, 25 mg/kg, vehicle PEG400:H2O pH 2.3 30:70.
[9] abbreviates: PO, 25 mg/kg, vehicle PEG400:H2O pH 2.3 30:70, read-out: Cmin (7 hr conc.).
The mark [10] stands for this setting: IP, 25 mg/kg, vehicle PEG400:H2O pH 2.3 30:70.
Setting [11] is: PO, 50 mg/kg, vehicle PEG400:H2O pH 2.3 30:70.
Setting [12] is: IP, 25 mg/kg, vehicle PEG400:H2O pH 2.3 30:70, read-out: Cmin (7 hr conc.).

Read-outs that look alike come from different tables or passages of the source.

Sequence of phosphorylated VEGF-R2Δ50 (FLVK-P) (P35968 with tags, fused parts or gaps DEL940-989/E990V limits assumed): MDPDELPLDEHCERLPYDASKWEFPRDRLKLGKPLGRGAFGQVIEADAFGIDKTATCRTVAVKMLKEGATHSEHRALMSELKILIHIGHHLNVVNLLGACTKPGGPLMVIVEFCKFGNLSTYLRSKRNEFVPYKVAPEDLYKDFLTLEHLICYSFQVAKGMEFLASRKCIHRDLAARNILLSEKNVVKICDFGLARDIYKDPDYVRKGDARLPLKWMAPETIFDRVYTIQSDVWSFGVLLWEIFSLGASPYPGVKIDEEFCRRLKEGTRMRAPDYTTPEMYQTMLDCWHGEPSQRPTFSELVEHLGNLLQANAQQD
Sequence of unphosphorylated VEGF-R2Δ50 (FLVK) (P35968 with tags, fused parts or gaps DEL940-989/E990V limits assumed): as above

In general, Ki refers to a measure of affinity in units of concentration, obtained from inhibition or displacement. A low value points to a stronger hold on the target. `Cc1cccc(C(=O)Nc2cccc(Oc3ccc4c(-c5cc6ccccc6[nH]5)n[nH]c4c3)c2)c1` [Example 6(b)] registered an inhibition constant (Ki) in data set [1] of 0.15 nM.
For `CN(c1cccc(N)c1)c1ccc2c(/C=C/c3ccccc3)n[nH]c2c1` [Example 11, N-Methyl-N-(3-styryl-1H-indazol-6-yl)-benzene-1,3-diamine], the figures for the inhibition constant (Ki) (in data set [2]; on human FGF-R1) were 12 nM and 34000 nM, respectively.
The compound `CN(c1cccc(N)c1)c1ccc2c(/C=C/c3ccc4c(c3)OCO4)n[nH]c2c1` [Example 15, N-[3-(2-Benzo[1,3]dioxol-5-yl-vinyl)-1H-indazol-6-yl]-N-methyl-benzene-1,3-diamine] displayed an inhibition constant Ki in data set [1] of 15 nM.
The same measure, in the same setting: then `CN(C)c1cccc(C(=O)Nc2cccc(N(C)c3ccc4c(/C=C/c5ccc6c(c5)OCO6)n[nH]c4c3)c2)c1` [Example 16(c), N-(3-{[3-(2-Benzo[1,3]dioxol-5-yl-vinyl)-1H-indazol-6-yl]-methyl-amino}-phenyl)-3-dimethylamino-benzamide], with 1.1 nM; and `CN(c1cccc(NC(=O)c2ccc(O)c(C(C)(C)C)c2)c1)c1ccc2c(/C=C/c3ccc4c(c3)OCO4)n[nH]c2c1` [Example 16(f)], with 2.8 nM.
`O=C(Nc1cccc(C(=O)c2ccc3c(/C=C/c4ccccc4)n[nH]c3c2)c1)OCc1ccccc1` [Example 19(c)] showed an inhibition constant Ki in data set [1] of 5.9 nM. Against the preceding compound, the Ki is about 2.1-fold higher.
`Cc1cncc(C(=O)Nc2cccc(C(=O)c3ccc4c(/C=C/c5ccccc5)n[nH]c4c3)c2)c1` [Example 19(e), 6-[3-(5-Methylpyridin-3-ylcarboxamido)benzoyl]-3-E-styryl-1H-indazole] returned a Ki in data set [1] of 20 nM. This Ki lies about 3.4-fold higher than the previous one.
Turning to `CC(C)C(=O)Nc1cccc(C(=O)c2ccc3c(/C=C/c4ccccc4)n[nH]c3c2)c1` [Example 19(h), 6-[3-(2-Methylpropionamido)benzoyl]-3-E-styryl-1H-indazole], the Ki in data set [1] was 5.9 nM.
Take `CSc1cc(O)ccc1-c1ccc2c(-c3nc4ccccc4[nH]3)n[nH]c2c1` [Example 24(k), 3-1H-Benzoimidazol-2-yl-6-(2-methylsulfanyl-4-hydroxyphenyl)-1H-indazole]: the Ki at CDK4/Cyclin D3 complex was found to be 7.2 nM; on CDK2/Cyclin A, 56 nM; on human FGF-R1 it was 160 nM.
For the compound `CC(=O)N1CCC(C(=O)Nc2cccc(Oc3ccc4c(/C=C/c5ccc(Cl)cc5)n[nH]c4c3)c2)CC1` [Example 30(b), 6-[3-(1-Acetylpiperidin-4-ylcarboxamido)phenoxy]-3-E-[2-(4-chlorophenyl)ethenyl]-1H-indazole], the Ki in data set [1] was 2.2 nM.
With `O=C(Nc1cccc(Cl)c1)c1ccccc1Sc1ccc2c(/C=C/c3ccccn3)n[nH]c2c1` [Example 33(d), 6-[2-(3-Chlorophenylcarbamoyl)phenylsulfanyl]-3-E-[2-(pyridin-2-yl)ethenyl]-1H-indazole], the “% remain (HLM, 2 h)” value in data set [3] is on record as 22%. The AUClast in data set [4] (setting [6]) is 5080 ng·h/mL; in data set [4] (setting [7]) it was 4744 ng·h/mL. The results for the “plasma half-life (T1/2)” value in data set [4] (setting [6]) and in data set [4] (setting [7]) were 1.6 h and 0.9 h, respectively. In addition, the concentration at 7 h in data set [4] (IP, 25 mg/kg, vehicle PEG400:H2O pH 2.3 60:40, read-out: Cmin (7 hr conc.)) was 113 ng/mL; in data set [4] (PO, 50 mg/kg, vehicle PEG400:H2O pH 2.3 60:40, read-out: Cmin (7 hr conc.)) it was 8 ng/mL. For the same compound, the values for the inhibitory constant (Ki) (in data set [2]; at human FGF-R1) were 0.14 nM and 24 nM, respectively.
In general, Cmax refers to the highest concentration seen after dosing. `O=C(NNc1ccccn1)c1ccccc1Sc1ccc2c(/C=C/c3ccccn3)n[nH]c2c1` [Example 35(n)]: the “% remain (HLM, 2 h)” value in data set [3] is 47%. Moreover, in data set [4] (setting [8]), the AUClast was determined as 4818 ng·h/mL, the maximum concentration (Cmax) was 3545 ng/mL and the “plasma half-life (T1/2)” value amounted to 1.4 h. In addition, in data set [4] (setting [9]), the concentration at 7 h came to 55 ng/mL. The compound also returned a Ki in data set [2] of 0.83 nM. Also, the Ki on human FGF-R1 stood at 92 nM.
In the case of `CONC(=O)c1ccccc1Sc1ccc2c(/C=C/c3ccccn3)n[nH]c2c1` [Example 35(r), 6-[2-(Methoxycarbamoyl)phenylsulfanyl]-3-E-[2-(pyridin-2-yl)ethenyl]-1H-indazole], in data set [3], the “% remain (HLM, 2 h)” value is reported as 51%. In data set [4] (setting [8]), the AUClast was 4261 ng·h/mL and the “plasma half-life (T1/2)” value is 1.3 h. Moreover, the concentration at 7 h in data set [4] (setting [9]) is 67 ng/mL. The Ki in data set [2] stood at 0.11 nM. Moreover, the affinity at human FGF-R1 corresponds to a Ki of 20 nM.
Regarding `Nc1cccc(C(=O)c2ccc3c(/C=C/c4ccccn4)n[nH]c3c2)c1` [Example 40(a), 6(3-Amino-benzoyl)-3-E-[2-(pyridin-2-yl)ethenyl]-1H-indazole], in data set [1], the affinity corresponds to a Ki of 17.9 nM.
Turning to `CCn1nc(C)cc1C(=O)Nc1cccc(C(=O)c2ccc3c(/C=C/c4ccccn4)n[nH]c3c2)c1` [Example 41(a), 6-[3-((1-Ethyl-3-methyl-1H-pyrazol-5-yl)carboxamido)benzoyl]-3-E-[2-(pyridin-2-yl)ethenyl]-1H-indazole], in data set [3], the “% remain (HLM, 2 h)” value worked out at 96%. The AUClast amounted to 92823 ng·h/mL in data set [4] (setting [10]) and 48998 ng·h/mL in data set [4] (setting [11]). Also, the highest concentration (Cmax) is 32202 ng/mL in data set [4] (setting [10]) and 18433 ng/mL in data set [4] (setting [11]). Moreover, the “plasma half-life (T1/2)” value in data set [4] (setting [10]) was 2.9 h; in data set [4] (setting [11]), 3.4 h. The concentration at 7 h in data set [4] (setting [12]) was 3860 ng/mL; in data set [4] (PO, 50 mg/kg, vehicle PEG400:H2O pH 2.3 30:70, read-out: Cmin (7 hr conc.)) it was 2460 ng/mL. Besides, the Ki in data set [2] came out at 0.03 nM; on human FGF-R1, 20 nM.
In the case of `C=CCn1nc(C)cc1C(=O)Nc1cc(C(=O)c2ccc3c(/C=C/c4ccccn4)n[nH]c3c2)ccc1C` [Example 41(ff), 6-[3-((1-Allyl-3-methyl-1H-pyrazol-5-yl)carboxamido)-4-methylbenzoyl]-3-E-[2-(pyridin-2-yl)ethenyl]-1H-indazole], in data set [3], the “% remain (HLM, 2 h)” value was found to be 68%. For the same compound, in data set [4] (setting [8]), the AUClast was determined as 9176 ng·h/mL and the “plasma half-life (T1/2)” value came out at 2.0 h. Besides, the concentration at 7 h in data set [4] (setting [9]) came to 410 ng/mL. Also, the affinity on human FGF-R1 corresponds to a Ki of 12 nM.
For `Cc1cc(C(=O)Nc2cccc(C(=O)c3ccc4c(/C=C/c5ccccn5)n[nH]c4c3)c2)n(C)n1` [Example 41(p), 6-[3-((1,3-Dimethyl-1H-pyrazol-5-yl)carboxamido)benzoyl]-3-E-[2-(pyridin-2-yl)ethenyl]-1H-indazole], the “% remain (HLM, 2 h)” value in data set [3] is 62%. In addition, in data set [4] (setting [10]), the AUClast was 4150 ng·h/mL and the “plasma half-life (T1/2)” value was 5.5 h. The concentration at 7 h in data set [4] (setting [12]) is 380 ng/mL. Also, in data set [2], the Ki was 0.06 nM. For the same compound, the Ki on human FGF-R1 stood at 90 nM.
For the compound `Cc1cc(C(=O)Nc2cccc(C(=O)c3ccc4c(/C=C/c5ccccn5)n[nH]c4c3)c2)n(C(C)C)n1` [Example 41(x), 6-[3-((1-Isopropyl-3-methyl-1H-pyrazol-5-yl)carboxamido)benzoyl]-3-E-[2-(pyridin-2-yl)ethenyl]-1H-indazole], in data set [4] (setting [8]), the AUClast is 24174 ng·h/mL, the Cmax stood at 4587 ng/mL and the “plasma half-life (T1/2)” value stood at 4.2 h. Further, the concentration at 7 h in data set [4] (setting [9]) is 1270 ng/mL. The same compound yielded a Ki at human FGF-R1 of 3.4 nM.
As for `Nc1cccc(Nc2ccc3c(/C=C/c4ccccc4)n[nH]c3c2)c1` [Example 46], affinity in data set [1] was put at a Ki of 3.5 nM.
Usually IC50 stands for the concentration needed to halve the response being measured. In the case of `CCn1nc(C)cc1C(=O)Nc1cc(Nc2ccc3c(/C=C/c4ccccn4)n[nH]c3c2)c(F)cc1C` [Example 48(a), 6-[N-(5-((1-Ethyl-3-methyl-1H-pyrazol-5-yl)carboxanido)-2-fluoro-4-methylphenyl)amino]-3-E-[2-(pyridin-2-yl)ethenyl]-1H-indazole], the “% remain (HLM, 2 h)” value in data set [3] is listed as 55%. For the same compound, the IC50 in data set [5] worked out at 8.8 nM. The Ki in data set [2] amounted to 0.37 nM; at human FGF-R1, 14 nM.
